{
  "source": "patent US10364247B2",
  "about": "“Preparation and use of novel protein kinase inhibitors” (Ruijin Hospital Affiliated to Shanghai Jiao Tong University …, priority 2015, dated 2019)",
  "biological_target": "FLT3 (Homo sapiens, UniProt P36888)",
  "sequence (P36888 27-993)": "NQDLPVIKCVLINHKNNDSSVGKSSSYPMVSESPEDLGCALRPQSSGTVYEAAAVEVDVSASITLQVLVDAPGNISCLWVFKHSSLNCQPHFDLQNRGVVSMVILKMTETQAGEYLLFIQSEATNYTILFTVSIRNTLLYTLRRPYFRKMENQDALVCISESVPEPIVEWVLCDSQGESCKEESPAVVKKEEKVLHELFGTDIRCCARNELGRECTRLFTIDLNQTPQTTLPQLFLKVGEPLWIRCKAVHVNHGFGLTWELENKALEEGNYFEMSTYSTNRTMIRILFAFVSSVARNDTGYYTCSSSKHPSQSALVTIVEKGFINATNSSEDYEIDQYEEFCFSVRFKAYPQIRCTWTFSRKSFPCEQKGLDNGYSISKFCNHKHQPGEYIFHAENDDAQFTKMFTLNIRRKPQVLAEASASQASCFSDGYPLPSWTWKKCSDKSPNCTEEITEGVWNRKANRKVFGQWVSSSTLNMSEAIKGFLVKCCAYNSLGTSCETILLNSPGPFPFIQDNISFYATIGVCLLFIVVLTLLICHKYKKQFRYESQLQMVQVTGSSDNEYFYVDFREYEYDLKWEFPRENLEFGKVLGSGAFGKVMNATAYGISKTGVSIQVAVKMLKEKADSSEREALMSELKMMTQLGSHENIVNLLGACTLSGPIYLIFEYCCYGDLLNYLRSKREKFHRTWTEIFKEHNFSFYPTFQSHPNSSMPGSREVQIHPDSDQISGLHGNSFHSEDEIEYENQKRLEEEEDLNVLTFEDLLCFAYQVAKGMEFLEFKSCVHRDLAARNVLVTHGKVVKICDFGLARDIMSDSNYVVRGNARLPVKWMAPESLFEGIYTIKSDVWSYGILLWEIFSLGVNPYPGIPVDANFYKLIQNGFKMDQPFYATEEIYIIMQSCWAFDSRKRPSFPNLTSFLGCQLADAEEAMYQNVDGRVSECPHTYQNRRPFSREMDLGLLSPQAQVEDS",
  "test": "KINOMEscan competition binding",
  "method": "KINOMEscan™ is based on a competition binding assay that quantitatively measures the ability of a compound to compete with an immobilized, active-site directed ligand (Fabian et al. (2005) Nat. Biotechnol. 23, 329; Karaman et al. (2008) Nat. Biotechnol. 26, 127). The compound was screened at 10 μM, and results for primary screen binding interactions are reported as ‘% Ctrl’, where lower numbers indicate stronger hits. The results for kinases targets with a % Ctrl less than 30 can be seen in Table 2.\nFLT3 is a receptor tyrosine kinase; its activating mutations are found in 30% human acute myeloid leukemia (AML)^5.",
  "data": [
    {"smiles": "Cc1ccc(Nc2ncc3c(n2)N(C)CN(c2cc(NC(=O)c4cccc(C(F)(F)F)c4)ccc2C)C3)cn1", "note": "[IA-9, N-(4-methyl-3-(1-methyl-7-((6-methylpyridin-3-yl)amino)-1,4-dihydropyrimido[4,5-d]pyrimidin-3(2H)-yl)phenyl)-3-(trifluoromethyl)benzamide]", "values": [
      {"measurement": "remaining binding at 10 µM", "setting": "FLT3, 10 μM, read-out: Percent Control", "value": 0.2, "unit": "%"},
      {"measurement": "binding to FLT3 kinase (in words)", "setting": "KINOMEscan data", "value": "bind(s) FLT3 kinase strongly"}
    ]}
  ]
}
